Reference: patent US20160158267A1, “METHODS OF PREVENTING, REDUCING OR TREATING MACULAR DEGENERATION” (Inotek Pharmaceuticals Corporation, priority 2014, published 2016)
Several values for one entry are separate records, joined by “and”; a condition that tells them apart may be missing. Equal values may be shown once. Read-outs that look alike come from different tables or passages of the source.

Key:
A2A adenosine receptor = A2A adenosine receptor (Homo sapiens, UniProt P29274); test: Adenosine receptor binding, A1 > A2A selectivity; settings: ratio of Ki values
Sequence of A2A adenosine receptor (P29274 whole entry): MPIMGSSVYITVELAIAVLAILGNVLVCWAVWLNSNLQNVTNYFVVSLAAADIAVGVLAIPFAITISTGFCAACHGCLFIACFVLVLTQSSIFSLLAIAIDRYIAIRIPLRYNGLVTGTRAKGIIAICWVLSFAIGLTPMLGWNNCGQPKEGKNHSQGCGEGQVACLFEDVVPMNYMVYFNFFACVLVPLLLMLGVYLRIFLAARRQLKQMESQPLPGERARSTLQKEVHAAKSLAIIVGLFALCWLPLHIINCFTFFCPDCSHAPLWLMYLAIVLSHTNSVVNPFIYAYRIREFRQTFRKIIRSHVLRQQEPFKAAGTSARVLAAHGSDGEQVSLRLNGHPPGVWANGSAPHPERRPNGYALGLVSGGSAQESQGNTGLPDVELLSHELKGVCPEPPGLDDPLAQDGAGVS
Description: The cell suspension is then homogenized in ice-cold hypotonic buffer (5 mM Tris/HCl mM EDTA, pH 7.4) and the homogenate is spun for 10 minutes (4° C.) at 1,000 g.

[1] = biological target: T1, human adenosine A3 receptor (Homo sapiens, UniProt P0DMS8); test: Inhibition of forskolin-stimulated adenylyl cyclase via A3 receptor, CHO cell membranes; assay type: biochemical; settings: membranes of CHO cells stably transfected with human A3
T1 sequence (P0DMS8 1-318): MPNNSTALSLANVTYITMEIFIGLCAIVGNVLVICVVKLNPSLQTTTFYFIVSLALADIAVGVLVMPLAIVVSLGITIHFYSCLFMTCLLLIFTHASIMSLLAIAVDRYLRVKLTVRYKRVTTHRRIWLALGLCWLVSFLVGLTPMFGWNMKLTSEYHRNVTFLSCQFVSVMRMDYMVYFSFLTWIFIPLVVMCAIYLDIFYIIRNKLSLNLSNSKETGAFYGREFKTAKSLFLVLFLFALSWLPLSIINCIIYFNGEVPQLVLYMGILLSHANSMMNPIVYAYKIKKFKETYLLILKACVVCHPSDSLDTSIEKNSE
Description: The A1 and A3 receptor-mediated inhibition of forskolin-stimulated adenylyl cyclase activity was tested in membranes prepared from CHO cells stably transfected with the human A1 and A3 adenosine receptors.

BALB/c mice [2] = assay type: in vivo; settings: for Group mean of the number of cell layers in retinal outer nuclear layer: placebo 7.22
Text: (§1) The rodent retina is widely used to investigate retinal diseases, as well as the response of central nervous system neurons to injury. Light-induced retinal damage (phototoxicity) selectively brings about photoreceptor cell death. Thus, this model is useful for studying the potential mechanisms underlying photoreceptor death and the subsequent retinal degeneration processes since it mimics the photoreceptor degeneration that forms the main characteristic of age-related macular degeneration.
(§2) Aliquots were removed from the refrigerator and allowed to warm to room temperature for at least 30 minutes before dosing. The positive control, BDNF, was reconstituted with 0.9% Sodium Chloride for Injection, USP at a concentration of 1 μg/μL. Any residual volumes were discarded.
(§3) Thirty-four (34) male BALB/c mice were received from Charles River, St Constant.
The test item and placebo were administered by twice-daily topical ocular instillation from Days 1 to 7, separated by at least 8 hours. The dose volume for each eye/dose was 10 μL. The formulations were stirred continuously during dose administration and were retained on wet ice between doses.
(§4) The positive control, BDNF, was administered to Group 4 animals by single bilateral intravitreal (IVT) injection on Day 1. The dose volume was 1 μL/eye. Animals were anesthetized for the dosing procedure using an isoflurane/oxygen mix and/or a sedative cocktail (ketamine 100 mg/kg; xylazine 10 mg/kg; half or quarter dose if needed given by intraperitoneal injection). Injections were made using a glass microneedle connected to a Hamilton syringe via a sclera pilot hole created with a 30 G needle. A bland lubricating ointment was applied to the eyes following dosing.
(§5) On Day 2, animals were transferred to the blue light bins (housed individually). Light fixtures with bulbs emitting blue light (460 to 490 nm; Philips F40/BB Special Blue F40T12/BB) were attached to separate housing racks directly above the cages, such that all animals received similar light exposure. The light intensity in the bins was measured using a light meter; the average intensity was 550 lux. Hiding devices/tubes and bedding were not available in the bins.
Mortality/moribundity checks were performed twice daily, once in the morning and once in the afternoon, throughout the study. Detailed examinations were performed weekly. Individual body weights were measured twice pre-treatment and at necropsy.
Electroretinography (ERG) was performed once pre-treatment and once at the end of Week 1 following overnight dark adaptation. The anesthetic used was ketamine (100 mg/kg) and xylazine (10 mg/kg).
All animals were euthanized on Day 8 and underwent exsanguination from the abdominal aorta after carbon dioxide asphyxiation. No necropsy examinations were performed.
One eye from each animal was embedded in paraffin, sectioned, mounted on glass slides, and stained with hematoxylin and eosin. The other eye was retained.
Histopathological evaluation was performed by a board-certified veterinary pathologist or veterinary pathologist with training and experience in laboratory animal pathology. The outer nuclear layer (ONL) thickness (number of cell layers) were counted at 4 locations in the retina and a microscopic evaluation of the retina, including pigmented retinal epithelial cells, was conducted. Representative images were captured for consultation and illustrative purposes.

BALB/c mice [3] = assay type: in vivo
Text: as §1, §2, §3
The dose volume for each eye/dose was 10 μL. The formulations were stirred continuously during dose administration and were retained on wet ice between doses.
as §4
as §5, with “The light intensity in the bins was measured using a light meter; the average intensity was 550 lux.” left out
The anesthetic used was ketamine (100 mg/kg) and xylazine (10 mg/kg).
All animals were euthanized on Day 8 and underwent exsanguination from the abdominal aorta after carbon dioxide asphyxiation.
One eye from each animal was embedded in paraffin, sectioned, mounted on glass slides, and stained with hematoxylin and eosin.
The outer nuclear layer (ONL) thickness (number of cell layers) were counted at 4 locations in the retina and a microscopic evaluation of the retina, including pigmented retinal epithelial cells, was conducted.

O=[N+]([O-])OC[C@H]1O[C@@H](n2cnc3c(NC4CCOC4)ncnc32)[C@H](O)[C@@H]1O (stereo partly drawn) [Compound D, ((2R,3S,4R,5R)-3,4-dihydroxy-5-(6-(tetrahydrofuran-3-ylamino)-9H-purin-9-yl)tetrahydrofuran-2-yl)methyl nitrate]
A1 > A2A SELECTIVITY [KiA2(nm)/KiA1(nm)] (A2A adenosine receptor): >9434

O=[N+]([O-])OC[C@H]1O[C@@H](n2cnc3c(NC4CCCC4)ncnc32)[C@H](O)[C@@H]1O [Compound A, ((2R,3S,4R,5R)-5-(6-(cyclopentylamino)-9H-purin-9-yl)-3,4-dihydroxytetrahydrofuran-2-yl)methyl nitrate]
EC50 [1]: > 100000 nM | Incidence of minimal to moderate decrease in cellularity of the retina (BALB/c mice [2]; 300 μg/eye/day topical, placebo 6/8): 7/8 | Group mean of the number of cell layers in retinal outer nuclear layer (BALB/c mice [2]; 300 μg/eye/day topical): 7.28 layers | Incidence of minimally decreased retinal cellularity (BALB/c mice [2]; 600 μg/eye/day topical, other animals not affected at all): 2/8 | Group mean of the number of cell layers in retinal outer nuclear layer (BALB/c mice [2]; 600 μg/eye/day topical): 8.56 layers | Overall effect on incidence and severity of decreased retinal cellularity (BALB/c mice [2]; 600 μg/eye/day, 7 days twice daily topical ocular instillation): protective effect | Retinal outer nuclear layer thickness (Mean number of nuclei), individual animals (BALB/c mice [2]; Group 2, low dose 300 μg/eye/day, animals 2001-2008, mean of 4 measurements per retina): 10.00 and 9.25 and 6.50 and 5.25 and 7.25 and 6.25 and 5.50 and 8.25 | Retinal outer nuclear layer thickness (Mean number of nuclei), individual animals (BALB/c mice [2]; Group 3, high dose 600 μg/eye/day, animals 3001-3008, mean of 4 measurements per retina): 9.25 and 9.00 and 9.75 and 7.75 (2×) and 9.50 and 8.75 and 6.75 | Abnormalities in general appearance or condition of the animals (BALB/c mice [2]; male BALB/c mice, dosing period, 300 or 600 μg/eye/day topical twice daily Days 1 to 7): No abnormalities were observed | ERG parameters (scotopic single flash 0 dB, A-wave and B-wave) (BALB/c mice [2]; one week after blue light exposure, 300 or 600 μg/eye/day, versus other groups including placebo): comparable across treatment groups | Average number of cell layers in the ONL, placebo compared to treated group (BALB/c mice [3]; 600 or 900 μg/eye/day topical): reduced in the placebo group | B-wave amplitude following 0 dB scotopic flash stimuli (BALB/c mice [3]; 600 or 900 μg/eye/day, versus placebo control, comparable to BDNF positive control): higher | Number of nuclear bodies in the ONL based on average ONL thickness counts (BALB/c mice [3]; low dose group (600 μg/eye/day), compared with all groups): retained the greatest number of nuclear bodies in the ONL | Overall ERG function and ONL cellularity after blue light exposure (BALB/c mice [3]; two or three-times daily at 600 or 900 μg/eye/day topical, 1100 lux for 6 hours on Day 2): preservation of ERG function and cellularity in the ONL layer of the retina

B1: BDNF: Brain Derived Neurotrophic Factor, positive control given by single bilateral intravitreal injection (protein, UniProt P23560 19-247, looked up)
Neurotrophic factor BDNF …: APMKEANIRGQGGLAYPGVRTHGTLESVNGPKAGSRGLTSLADTFEHVIEELLDEDQKVRPNEENNKDADLYTSRVMLSSQVPLEPPLLFLLEEYKNYLDAANMSMRVRRHSDPARRGELSVCDSISEWVTAADKKTAVDMSGGTVTVLEKVPVSKGQLKQYFYETKCNPMGYTKEGCRGIDKRHWNSQCRTTQSYVRALTMDSKKRIGWRFIRIDTSCVCTLTIKRGR
Group mean of the number of cell layers in retinal outer nuclear layer (BALB/c mice [2]; 1 μg/eye single IVT injection Day 1): 8.75 layers | Retinal outer nuclear layer thickness (Mean number of nuclei), individual animals (BALB/c mice [2]; Group 4, 1 μg/eye/day IVT, animals 4001-4008, mean of 4 measurements per retina): 7.75 (2×) and 9.25 and 8.50 (2×) and 8.75 and 10.50 and 9.00 | Average number of cell layers in the ONL, placebo compared to treated group (BALB/c mice [3]; BDNF control, 1 μg/eye IVT): reduced in the placebo group
